Marks after values point to notes of the source that are not given here.
What was measured:
Format in all cases: in vivo, rat
[1] = system: MIA-induced osteoarthritis in Sprague-Dawley rats; experiment: Histopathology of femorotibial joint, modified Mankin score, MIA-induced OA model
Procedure: Treatment started a week before MIA injection. […] The standardized blends for each treatment groups are defined as UP446=1A:4S, UP1306=1A:2M and the composition at the given dosage=0.282A:0.308S:0.410M where “A”, “S” and “M” stands for acacia, scutellaria and moms, respectively. On the induction day, isoflurane (Lot #B66H15A, Piramal Enterprise Ltd. Andhra Pradesh, India) anesthetized rats were injected with 0.8 mg of MIA (Lot #A0352046, Acros Organics, New Jersey, USA) in 50 μL saline solution into the intra-articular pocket of left femorotibial (knee) joint using 26 G needle an hour after treatment. Normal control rats were injected with an equal volume of saline. […] Body weights were measured once a week to calculate the respective weekly dosage of each group. The merit of combining UP1306 and UP446 was then evaluated using the Colby's equation (Colby, 1967). Pain sensitivity percent inhibition values were used to determine the calculated efficacy values and compared to the observed percent inhibition values of the composition.
At necropsy, animals were asphyxiated with CO2 and the femorotibial joint was carefully dissected out, fixed in 10% buffered formalin and sent to Nationwide Histology (Veradale, WA, USA) for further histopathology analysis. The fixed specimens were then decalcified with Calci-Clear Rapid for 1 and a half days and embedded in paraffin. Standardized 5 μm serial sections were obtained at the medial and lateral midcondylar level in the sagittal plane and were stained with hematoxylin and eosin (HE) and Safranin O-fast green to enable evaluation of proteoglycan content. A modified Mankin system (Mankin et al., 1981) was used to score structural and cellular alterations of articular components as indications of disease progression and/or treatment efficacy. The histological analysis was conducted by a certified Pathologist at Nationwide Histology.

[2] = system: MIA-induced osteoarthritis in Sprague-Dawley rats; experiment: Bone histomorphometry (Micro CT) in therapeutic MIA induced osteoarthritis model
Procedure: Male Sprague-Dawley (SD) rats weighing 170˜230 g (6 weeks of age) were purchased and acclimated for one week. […] Anesthetized rats were injected with 0.8 mg of MIA in 50 μl saline solution into the intra-articular pocket. One week after MIA induction, samples were administrated daily with gastric tube for 6 weeks. Bone histomorphometry was evaluated on both femur and tibia per knee joint in rats from the MIA-induced osteoarthritis model by Micro CT scan using an Inveon™ unit (Siemens Healthcare USA, Inc., Pennsylvania, USA) at Korea Basic science institute, Ochang, Korea. BMD was used as an indicator of osteoporosis and fracture risk; BV/TV as an indicator of trabecular bone volume refers to the ratio of the trabecular bone volume to the total volume; BS/BV as an indicator of trabecular turnover refers to the ratio of the trabecular bone surface to the trabecular bone volume of a region of interest.

[3] = system: MIA-induced osteoarthritis in Sprague-Dawley rats; experiment: Pain sensitivity (paw withdrawal / compression threshold, Randall-Salitto) in MIA-induced OA model; conditions: Diclofenac 10, UP1306 400, UP446 250, Composition 650 mg/kg; for Compression threshold (Mean ± SD): oral
Procedure: Animals were provided with fresh water and rodent chow diet # T2018 (Harlan Teklad, 370W, Kent, WA, USA) ad libitum and were housed in a temperature-controlled room (22.2° C.) on a 12 h light-dark cycle.

[4] = system: MIA-induced osteoarthritis in Sprague-Dawley rats; experiment: Bone histomorphometry (Micro CT) in concurrent MIA-induced osteoarthritis model
Procedure: Male Sprague-Dawley (SD) rats weighing 170˜230 g (6 weeks of age) were purchased and acclimated for one week. […] Anesthetized rats were injected with 0.8 mg of MIA in 50 μl saline solution into the intra-articular pocket at 1 hour after sample treatments. And then samples were administrated daily with gastric tube for 6 weeks. Bone histomorphometry was evaluated on both femur and tibia per knee joint by Micro CT scan using an Inveon™ unit (Siemens Healthcare USA, Inc., Pennsylvania, USA) at Korea Basic science institute, Ochang, Korea. BV/TV as an indicator of trabecular bone volume is the ratio of the trabecular bone volume to the total volume. BMD used as an indicator of osteoporosis and fracture risk. Therefore, we checked those markers whether GM has the efficacy on the osteoporosis. […] Anesthetized rats were injected with 0.8 mg of MIA in 50 μl saline solution into the intra-articular pocket at 1 hour after sample treatments. Samples were administrated daily with gastric tube for 6 weeks. Bone histomorphometry was evaluated on both femur and tibia per knee joint by Micro CT scan using an Inveon™ unit (Siemens Healthcare USA, Inc., Pennsylvania, USA) at Korea Basic science institute, Ochang, Korea. BV/TV as an indicator of trabecular bone volume is the ratio of the trabecular bone volume to the total volume. BMD used as an indicator of osteoporosis and fracture risk.

[5] = MIA 0.8 mg/joint, Diclofenac 10, UP1306 400, UP446 250, Composition 650 mg/kg
[6] = treatment from one week after MIA, daily 6 weeks, Diclofenac 10 mg/kg, GM 500 mg/kg, mean ± SD
[7] = MIA 1 hour after sample treatment, daily 6 weeks, Diclofenac 10 mg/kg, GM 500 mg/kg, mean ± SD

## O=C(O)Cc1ccccc1Nc1c(Cl)cccc1Cl [Diclofenac]
[1]; AM 400, UP446 250, AU 650, Diclofenac 10 mg/kg
  reduction in overall structural abnormality: 51.4%
[1]; Diclofenac 10, AM 400, UP446 250, AU 650 mg/kg
  reduction in matrix GAG loss (Safranin O): 46.0%
[1]; [5]
  Bone at Articular surfaces (modified Mankin score 0-6): 0.70 ± 0.24
  Fibrovascular proliferation (modified Mankin score 0-6): 1.55 ± 0.69
  Inflammation/ Cellular infiltration (modified Mankin score 0-6): 0.55 ± 0.15
  Matrix GAGs (modified Mankin score 0-6): 1.44 ± 0.38
  Structural abnormality (modified Mankin score 0-6): 1.23 ± 0.36
[2]; therapeutic MIA model
  BV/TV compared with vehicle group: decreasing tendency
[2]; [6]
  BMD (mg/cm3): 896.2 ± 29.4 mg/cm3
  BS/BV: 9.11 ± 1.41
  BV/TV (%): 65.35 ± 7.75%
[3]; Baseline
  Percent change of vehicle, Pain sensitivity inhibition: 0.9%
  Compression threshold (Mean ± SD): 244.1 ± 3.8
[3]; Week-1
  Percent change of vehicle, Pain sensitivity inhibition: 40.4* %
  Compression threshold (Mean ± SD): 190.8 ± 1.1
[3]; Week-2
  Percent change of vehicle, Pain sensitivity inhibition: 28.8* %
  Compression threshold (Mean ± SD): 171.8 ± 0.6
[3]; Week-3
  Percent change of vehicle, Pain sensitivity inhibition: 31.2* %
  Compression threshold (Mean ± SD): 170.1 ± 2.2
[3]; Week-4
  Percent change of vehicle, Pain sensitivity inhibition: 30.8* %
  Compression threshold (Mean ± SD): 171.6 ± 0.6
[3]; Week-5
  Percent change of vehicle, Pain sensitivity inhibition: 31.0* %
  Compression threshold (Mean ± SD): 170.9 ± 1.1
[4]; [7]
  BMD (mg/cm3): 982.3 ± 19.44 mg/cm3
  BV/TV (%): 71.89 ± 5.43%
[4]; concurrent MIA model
  BMD compared with vehicle group: significantly increased
  BV/TV compared with vehicle group: tendency to increase

From patent US12042523B2, “Compositions and methods for managing or improving bone disorders, joint disorders, cartilage disorders, or a combination thereof” (Unigen, Inc., priority 2014, dated 2024)
